Source: US20050220888A1, “Controlled release compositions and methods for using same” (priority 2002, published 2005)
Counter-ions that a name gives are not always drawn.

Key:
[1] = tested on: IL-6 production by HUVEC cells; test: Inhibition of histamine-induced IL-6 mRNA production (RT-PCR against HPRT); type: cell-based, human; conditions: 5 hours
Description: Various assays also exist for identifying a highest pharmacological activity enantiomer of a given pharmacologically active agent. Where the pharmaceutical activity is as a histamine antagonist, IL-6 production by HUVEC cells is a cell biomarker of histamine activity and is used to assess the relative antagonistic activity of prospective H1 blockers. IL-6 production in human endothelial cells is known to be induced by histamine due to H1 and H2 receptor binding with H1 the dominant effect. Delneste, et al. As H1 antagonism is directly linked to reduced emesis during motion sickness treatment, this assay serves as an in vitro methodology for the selection of potential motion sickness and antihistamine candidates. Realtime RT-PCR analysis of IL-6 mRNA synthesis in HUVEC cells stimulated with histamine is employed as an in vitro assay for the analysis of the relative efficacy of potential antihistaminic agents.
A preferred assay for measuring activity of phenothiazine and other histamine antagonists comprises: providing at least a first viable culture and a second viable culture comprising Huvec cells; exposing the first viable culture to a first combination comprising histamine and the (+)-enantiomer of the phenothiazine under conditions effective to inhibit IL-6 mRNA expression; exposing the second viable culture to a combination comprising histamine and the (−)-enantiomer of the phenothiazine under conditions effective to inhibit IL-6 mRNA expression; measuring inhibition of IL-6 mRNA expression induced by the first combination and the second combination after at least four hours to identify a (+)-enantiomer inhibition value and a (−)-enantiomer inhibition value; and selecting as the highest pharmacological activity enantiomer the enantiomer having the greater inhibition value selected from the group consisting of the (+)-enantiomer inhibition value and the (−)-enantiomer inhibition value.
Huvec cells were plated and grown to confluence in 6-well plates. […] Total RNA was isolated using Tri-reagent and subjected to reverse transcription polymerase chain reaction (RT-PCR) analysis of IL-6 production using semiquantitative analysis against HPRT expression (control gene).
The procedures of Example 3 were repeated using the (+)-enantiomer (#2) and the (−)-enantiomer (#1) of EPZ at 10^−5 molar and 10^−6 molar, and TPZ at 10^−5 molar.

[2] = tested on: L929 lung fibroblast; conditions: shown by previous studies; cited from earlier work
[3] = encapsulated in a variety of shell materials, administered to beagles; cited from earlier work

Structure (SMILES): CC(CN1c2ccccc2Sc2ccccc21)N(C)C.Cl (single isomer, unassigned; (-)) [(−) enantiomer, (−)-Promethazine hydrochloride]
- reduction in IL-6 production ([1]; 10^−5 M with Histamine 10^−4 M): 50%

Structure (SMILES): CC(CN1c2ccccc2Sc2ccccc21)N(C)C.Cl (single isomer, unassigned; (+)) [(+) enantiomer, (+)-Promethazine hydrochloride]
- IL-6 production reduced to % of the histamine stimulated cell ([1]; 10^−5 M with Histamine 10^−4 M): 90%

Structure (SMILES): NCCc1c[nH]cn1 [Histamine]
- increase in IL-6 mRNA production ([1]; Histamine alone 10^−4 M, versus endogenous production): 50%

Structure (SMILES): C=C(C)C(=O)OCC(O)COc1ccc(C(C)(C)c2ccc(OCC(O)COC(=O)C(=C)C)cc2)cc1 (stereo not drawn) [BisGMA]
- cytotoxicity of control in this assay [2]: significantly cytotoxic

Structure (SMILES): CC(CN1c2ccccc2Sc2ccccc21)N(C)C (racemic) [Promethazine, promethazine hydrochloride]
- nasal irritation [3]: severe nasal irritation was observed
- inhibition of histamine stimulation of IL-6 production ([1]; 10^−5 M with Histamine 10^−4 M, relative to cells stimulated only with histamine): 50%
